We go through two compounds from patent US20180000802A1, “PHARMACEUTICAL COMPOSITION FOR PREVENTION AND TREATMENT OF MENTAL DISEASE WITH ENHANCED NMDAR FUNCTION” (INSTITUTE FOR BASIC SCIENCE, priority 2015, published 2018).

One series concerns IRSp53 deficient mice. The experiment in a line: 3-chamber sociability test. The settings on record: memantine 10 mg/kg, MPEP 30 mg/kg; for mice preference (sociability behavior) in the 3-chamber sociability test: intraperitoneal injection 30 minutes before the test, vs saline control; for sedation due to side effects: intraperitoneal injection. In kind it is in vivo, mouse. On the procedure: For the experiment animals of the present invention, wild-type mice backcrossed into a C57BL/6J background and IRSp53 deficient mice were used. The mice were at 2-4 months of age. In addition, in the present invention, all of the experiments were conducted by maintaining a temperature of 20-22° C. and a humidity of 30-40% while the lights are turned on during 7:00 am to 7:00 pm. As the memantine, which is an NMDAR inhibitor and the MGluR inhibitor, the MPEP indirectly inhibiting the NMDAR is dissolved in physiological saline and used. The memantine is used in a concentration of 10 mg (10 mg/kg) per unit weight, and the MPEP is used in a concentration of 30 mg (30 mg/kg) per unit weight, and the drug was administered to the experiment mice by intraperitoneal injection before 30 minutes of every experiment. NMDAR was tested with respect to the sociability behavior of hyperactivated mice. The 3-chamber sociability test and the direct interaction test, which are the most widely used among the behavioral experiments for identifying sociability behavior of mice. The 3-chamber sociability test was conducted by using a behavior experiment box separated into 3 sections. […] A, B, and C of FIG. 1 show the measurement based on the box bottom, the horizontal side surface and the vertical side surface, respectively, and the experiment box was manufactured exposing that the top so the experiment may be photographed by a camera (FIG. 1). In the basic 3-chamber sociability test, a mouse (stranger) was placed in one side and an object (small toy block) without scent was placed in the other side, and the normal mouse (WT) and the deficient mouse were placed in the middle chamber to observe how much attention was given to the other mouse and explored and time was spent. The detailed experiment method of the present invention is described below. First, the wild-type mouse and the IRSp53 deficient mouse were prepared. In addition, before 10 minutes of the experiment, the mouse to be experimented was put into a soundproof booth in which the experiment was to be conducted. 10 minutes later, the holes in the inner wall were blocked and the mouse was put into the middle area. Another 10 minutes later, the holes were opened, and the mouse was allowed to move freely around the 3 chambers. […] During 10 minutes of experiment where the Stranger 1 and the object were placed, the time of the mouse staying at the two areas were measured. In addition, to measure the time of the actual mice exploring the stranger 1 or the object, the time when the nose of the mouse crosses over a virtual line 2 cm away from the plastic cup was measured. […]

The test system of series [1] is NMDAR. The experiment in a line: NMDA/AMPA ratio, electrophysiology in brain slices. In kind it is cell-based. The note with it: IRSp53 deficient mouse, ratio increased vs wild-type; MPEP treatment. The method, then: (§1) To observe whether the memantine and the MPEP restore the NMDAR function observed on the hippocampus of the IRSp53 deficient mice to a normal range, the electrical signal flow of the synapses through the NMDAR was measured by the electrophysiological experiment.
In the present experiment, the Long-term potentiation (LTP) and the Long-term depression experiments were conducted. First, the NMDAR properties of the nerve cell of the IRSp53 deficient mice were electrophysiologically measured. The measurement was experimented and conducted by the method disclosed in the paper of Kim M H et al. (Kim, M. H. et al. Enhanced NMDA Receptor-Mediated Synaptic Transmission, Enhanced Long-Term Potentiation, and Impaired Learning and Memory in Mice Lacking IRSp53. J Neurosci 29, 1586-1595, doi:Doi 10.1523/Jneurosci.4306-08.2009 (2009)). The equipment used for the electrophysiological measurement was MultiClamp 700B amplifier and Axopatch 200B of Molecular Devices, and Clampex 9.2 and Clampfit 9 software of the same company were used. During the experiment, BX50WI microscope of Olympus was used.
In the present experiment, first, for all of the electrophysiological experiment, brain slices were made from the brains of the normal mice and the IRSp53 deficient mice. To make the slices, VT1200S model vibratome of Leica was used. […]

Series [2] concerns NMDAR. The experiment in a line: Electrophysiological measurement of NMDAR-LTD in hippocampal brain slices. Format: cell-based. The note with it: hippocampal brain slices of IRSp53 deficient mouse, weaker NMDAR-LTD than in normal mouse; memantine treatment. On the procedure: as §1
When the NMDAR is activated by electrically stimulating the never cell, an ion transferred from the outside of the nerve cell to the inside of the nerve cell through the NMDAR according to the activation level exists, and by the ion concentration difference of the inside and outside of the cell, various proteins inside the cell are also activated, thereby showing electrical reaction of the nerve cell with respect to the stimulation. The state in which this reaction is maintained for 30 minutes or longer is called Long-term potentiation (LTP) and Long-term depression (LTD), and when the NMDAR is intensively activated, the LTP may be induced, and when the NMDAR is weakly activated a long-term weakening, LTD may be induced.
In the present experiment, the Long-term potentiation (LTP) and the Long-term depression experiments were conducted. First, the NMDAR properties of the nerve cell of the IRSp53 deficient mice were electrophysiologically measured. […]

The next series relates to IRSp53 deficient mouse. The series can be described thus: Nerve cell firing of the medial prefrontal cortex in the anesthetized mouse. Format: in vivo. The settings on record: IRSp53 deficient mice, urethane anesthesia, 10 mg/kg intraperitoneally, observed after 30 minutes. On the procedure:
(§2) The memantine was administered to the IRSp53 deficient mouse, and the synapse of the medial prefrontal cortex was structurally and functionally analyzed. In the experiment, the brain slices were not made, an anesthetic drug (1.5 g/kg) named Urethane was used on the mouse to perform the electrophysiological experiment in a condition in which the neural circuitry in the mouse is maintained, and the electrical signal firing of the nerve cell was observed, In detail, in the experiment, the mouse was anesthetized, a glass electrode for measuring the electrical signal was inserted in the medial prefrontal cortex and the hippocampus, and measured. A and I of FIG. 7 show the positions through which each electrode is inserted. From the result of comparing the nerve cell firing of the medial prefrontal cortex of the IRSp53 deficient mouse, in the IRSp53 deficient mouse, the nerve cell firing of the medial prefrontal cortex decreased. Specifically, in the IRSp53 deficient mouse, the nerve cell firing specific to the excitatory nerve cell decreased (B, C and D of FIG. 7).

The test system of series [3] is wild-type mouse and IRSp53 deficient mouse. The experiment in a line: Nerve cell firing of the hippocampus in the anesthetized mouse. In kind it is in vivo. The settings on record: IRSp53 deficient mouse compared to wild-type mice after memantine injection. On the procedure: as §2

Entries after “also recorded” stand apart in the source; their conditions may differ.

As to `Cc1cccc(C#Cc2ccccc2)n1` [MPEP, 2-Methyl-6-(phenylethynyl)pyridine], in the series on IRSp53 deficient mice, the “mice preference (sociability behavior) in the 3-chamber sociability test” value was “improved to a level of the wild-type mice” and the “sedation due to side effects” value is “no sedation due to side effects”. Besides, the NMDA/AMPA ratio result in the series on NMDAR [1] is listed as “restored to the level of the wild-type mouse”.

Regarding `CC12CC3CC(C)(C1)CC(N)(C3)C2` [memantine], in the series on IRSp53 deficient mice, the “mice preference (sociability behavior) in the 3-chamber sociability test” value is on record as “improved to a level of the wild-type mice” and the “sedation due to side effects” value was “no sedation due to side effects”. The NMDAR-LTD result with NMDAR [2] is “restored”. In addition, the “nerve cell firing of the medial prefrontal cortex” value in the series with IRSp53 deficient mouse is “the drug showed good effects; also recorded: restored to the normal range”. Moreover, the “nerve cell firing change in the hippocampus” value in series [3] is reported as “the firing was greater”.
